The target in assay [1] is T1, human androgenic receptor (Homo sapiens, UniProt P10275).
T1 construct: host or cells: Saccharomyces cerevisiae
T1 sequence (P10275 1-920): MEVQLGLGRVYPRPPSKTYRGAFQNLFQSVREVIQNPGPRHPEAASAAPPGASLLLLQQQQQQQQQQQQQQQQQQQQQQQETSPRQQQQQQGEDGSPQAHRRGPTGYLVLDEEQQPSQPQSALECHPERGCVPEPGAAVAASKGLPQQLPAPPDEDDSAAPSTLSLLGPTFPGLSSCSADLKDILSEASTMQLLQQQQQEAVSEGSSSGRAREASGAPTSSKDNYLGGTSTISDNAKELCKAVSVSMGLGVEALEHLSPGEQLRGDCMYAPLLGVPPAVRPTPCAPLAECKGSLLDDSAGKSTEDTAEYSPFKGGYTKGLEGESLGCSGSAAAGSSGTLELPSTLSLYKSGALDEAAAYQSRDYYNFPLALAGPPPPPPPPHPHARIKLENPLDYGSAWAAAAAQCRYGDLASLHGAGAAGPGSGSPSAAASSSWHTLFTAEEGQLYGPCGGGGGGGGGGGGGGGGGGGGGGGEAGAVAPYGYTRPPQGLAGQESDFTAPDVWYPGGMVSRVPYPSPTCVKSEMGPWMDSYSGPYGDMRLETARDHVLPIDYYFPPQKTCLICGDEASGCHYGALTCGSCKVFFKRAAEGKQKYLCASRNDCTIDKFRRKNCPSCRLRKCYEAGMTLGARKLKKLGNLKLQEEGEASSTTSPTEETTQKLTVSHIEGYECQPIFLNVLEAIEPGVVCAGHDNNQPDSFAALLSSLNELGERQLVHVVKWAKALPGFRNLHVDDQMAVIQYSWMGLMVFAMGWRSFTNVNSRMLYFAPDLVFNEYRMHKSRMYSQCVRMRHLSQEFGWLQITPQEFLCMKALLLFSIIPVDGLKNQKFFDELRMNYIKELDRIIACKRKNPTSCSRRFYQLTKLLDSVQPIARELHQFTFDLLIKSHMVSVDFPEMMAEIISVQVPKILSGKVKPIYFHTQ
The experiment in a line: Yeast-based androgenic reporter assay, agonistic. The conditions noted are these: read-out: Calculated EC50 values, androgenic activity. In kind it is cell-based.
Procedure: Genetically modified yeast cells (Saccharomyces cerevisiae) containing the human androgenic receptor gene integrated into a yeast chromosome, as well as an expression plasmid with the sequences of both the androgen responsive element and a lacZ reporter gene were cultured in humidified air at 31°C with agitation for 2 days. The appropriate concentrations of the test compounds and a CPRG substrate solution (chlorophenol red-β-D-galactopyranoside) for β-galactosidase were added into a 96-well microplate according to the instructions of the manufacturer. Androgen agonistic and antagonistic properties of the test compounds were determined by a colorimetric assay. For the antagonistic measurements the medium was supplemented with 5α-dihydrotestosterone (DHT). Once the reporter gene is expressed, β-galactosidase is secreted into the medium, and converts the yellow CPRG substrate into a red product, which can be quantified at 570 nm. Quantities of this red product correlate with the liberation of β-galactosidase, which is increased when an agonistic effect is present, while it is decreased when the test compound exerts an antagonistic effect. For the agonistic and antagonistic assays, nandrolone (1) and flutamide were used as reference agents, respectively.

Assay [2] concerns the target T1, human androgenic receptor. In words: Yeast-based androgenic reporter assay, antagonistic. In kind it is cell-based. The conditions noted are these: in the presence of 5α-dihydrotestosterone. As to the method:
An endocrine bioassay kit (Xenometrix AG, Allschwil, Switzerland) was used to test for a potential residual androgenic activity of the selected agents. Genetically modified yeast cells (Saccharomyces cerevisiae) containing the human androgenic receptor gene integrated into a yeast chromosome, as well as an expression plasmid with the sequences of both the androgen responsive element and a lacZ reporter gene were cultured in humidified air at 31°C with agitation for 2 days. The appropriate concentrations of the test compounds and a CPRG substrate solution (chlorophenol red-β-D-galactopyranoside) for β-galactosidase were added into a 96-well microplate according to the instructions of the manufacturer. Androgen agonistic and antagonistic properties of the test compounds were determined by a colorimetric assay. For the antagonistic measurements the medium was supplemented with 5α-dihydrotestosterone (DHT). Once the reporter gene is expressed, β-galactosidase is secreted into the medium, and converts the yellow CPRG substrate into a red product, which can be quantified at 570 nm. Quantities of this red product correlate with the liberation of β-galactosidase, which is increased when an agonistic effect is present, while it is decreased when the test compound exerts an antagonistic effect. […]
Background: In a reporter assay the amount or activity of a reporter protein is the signal.

The values that follow come from paper PMC6072853 (Frontiers in Pharmacology, 2018).

By EC50 is commonly meant the concentration that produces a half-maximal response. As for `C[C@]12CC[C@H]3[C@@H](CCC4=CC(=O)CC[C@@H]43)[C@@H]1CC[C@H]2Cl` [Compound 3], in assay [1], the EC50 is 3.8 µM. In addition, the androgen antagonistic activity result in assay [2] was “no antagonistic activity”.
